Measurements published in paper PMC2913396 (Molecular Systems Biology, 2010).
“Also recorded” adds a separate entry of the source.

Experiments:
Huh-7 cells = assay: host proliferation counterscreen measuring cellular ATP levels; format: cell-based, human; conditions: 48 h
[1] = test system: HCV genotype 1b subgenomic replicon in Huh-luc/neo-ET cells; assay: cHTS luciferase assay; format: cell-based, hepatitis C virus; conditions: for effect on replicon replication (in words): single agent, 48 h luciferase
HMGCR = HMGCR protein expression by western blot; format: cell-based, human; conditions: Huh-7 cells, 16 h
[2] = test system: HCV replicon RNA in Huh-luc/neo-ET cells; assay: replicon RNA copy number by quantitative RT-PCR; format: cell-based, hepatitis C virus; conditions: 72 h, normalized to total RNA
[3] = ref Pyrah et al, 2001; Cenedella et al, 2004; cited from earlier work

NCCCC(O)(P(=O)(O)O)P(=O)(O)O [Alendronate]
effect on host cell ATP levels (in words) (Huh-7 cells): reduce host cell ATP levels

CCC(C)(C)c1ccc(CC(C)CN2C[C@@H](C)O[C@@H](C)C2)cc1 (stereo partly shown) [Amorolfine]
effect on replicon replication (in words) [1]: inhibited HCV replication with marginal impact on host cell ATP levels

CCN(CC)CCOc1ccc(C(=C(Cl)c2ccccc2)c2ccccc2)cc1 [Clomiphene]
effect on host cell ATP levels (in words) (Huh-7 cells): reduce host cell ATP levels

CC(C)CCC[C@@H](C)[C@H]1CC(=O)C2=C3CC[C@H]4C[C@@H](O)CC[C@]4(C)[C@H]3CC[C@@]21C [Colestolone]
effect on replicon replication (in words) [1]: inhibited HCV replication with marginal impact on host cell ATP levels

CC(C)=CCC/C(C)=C/CC/C(C)=C/CO [Farnesol]
effect on replicon replication (in words) [1]: strongly promoted replicon replication

CC(Cc1ccc(C(C)(C)C)cc1)CN1C[C@@H](C)O[C@@H](C)C1 (stereo partly shown) [Fenpropimorph]
effect on replicon replication (in words) [1]: inhibited HCV replication with marginal impact on host cell ATP levels

COC(=O)[C@H](CC(C)C)NC(=O)c1ccc(NC[C@@H](N)CS)cc1-c1ccccc1 [GGTI-286]
effect on replicon replication (in words) [1]: antiviral activity

CCOP(=O)(OCC)C(=Cc1cc(C(C)(C)C)c(O)c(C(C)(C)C)c1)P(=O)(OCC)OCC [SR-12813]
effect on replicon replication (in words) [1]: strongly promoted replicon replication

CCC(C)(C)C(=O)O[C@H]1C[C@@H](C)C=C2C=C[C@H](C)[C@H](CC[C@@H]3C[C@@H](O)CC(=O)O3)[C@H]21 [Simvastatin]
effect on replicon replication (in words) [1]: proviral effect; also recorded: increased HCV replication
effect on host cell ATP levels (in words) (Huh-7 cells): correlate with a reduction in host cell ATP levels
HMGCR protein expression (in words) (HMGCR): apparent overexpression of HMGCR
replicon RNA copy number, RT-qPCR (in words) [2]: proviral effects

C=C(CC[C@]12O[C@H](C(=O)O)[C@@](O)(C(=O)O)[C@](C(=O)O)(O1)[C@H](OC(=O)/C=C/[C@@H](C)C[C@@H](C)CC)[C@H]2O)[C@@H](OC(C)=O)[C@H](C)Cc1ccccc1 [Squalestatin]
effect on replicon replication (in words) [1]: strongly promoted replicon replication
HMGCR protein expression (in words) (HMGCR): overexpression of HMGCR
replicon RNA copy number, RT-qPCR (in words) [2]: proviral effects

CCCCCCCCCCCCCCOc1ccc(C(=O)O)o1 [TOFA]
effect on host cell ATP levels (in words) (Huh-7 cells): modest depletion of ATP at most antiviral concentrations

CC(C)N1CCN(c2ccc(OCC3COC(Cn4cncn4)(c4ccc(Cl)cc4Cl)O3)cc2)CC1 (stereo not shown) [Terconazole]
effect on host cell ATP levels (in words) (Huh-7 cells): reduce host cell ATP levels

CCN(CC)CCO[C@H]1CC[C@@]2(C)C(=CC[C@@H]3[C@@H]2CC[C@]2(C)C(=O)CC[C@@H]32)C1.Cl [U18666A]
side effects [3]: rapid induction of cataracts and irreversible lens damage in animals
IC50 of HCV replication inhibition (in words) ([1]; 48 h): nM range
effect on replicon replication (in words) [1]: inhibited HCV replication with marginal impact on host cell ATP levels
HMGCR protein expression (in words) (HMGCR): overexpression of HMGCR

CC(C)n1c(/C=C/C(O)CC(O)CC(=O)O)c(-c2ccc(F)cc2)c2ccccc21 (stereo not shown) [fluvastatin]
effect on replicon replication (in words) [1]: proviral effect
